From ChEMBL document CHEMBL1201862, “PubChem BioAssay data set” (2004)
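Five compound concentrations were applied to cells in 96-well plates for 48 hours; endpoints were derived by simple linear interpolation of the resulting dose-response curve. The concentration for 50% growth inhibition is given as GI50.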 Calls of active or inactive are those of the source. Cut-off read from the data, not from the text of the source: active = GI50 up to about 1.1 µM and inactive = higher.

Legend:
Assay in all cases: NCI anticancer screen, dose series, 48 h
[1] = tested on: SK-OV-3
[2] = tested on: RPMI-8226
[3] = tested on: NCI/ADR-RES
[4] = tested on: HOP-18
[5] = tested on: SK-MEL-2
[6] = tested on: SF-295
[7] = tested on: UACC-257
[8] = tested on: MCF7
[9] = tested on: K562

Compound: COC1=CC(=O)c2c(c(O)c3oc4cc(OC)cc(C)c4c(=O)c3c2O)C1=O [BIKAVERIN]
- GI50 [1]: 1.56 µM (inactive)
- GI50 [2]: 1.01 µM (active)
- GI50 [3]: 881 nM (active)
- GI50 [4]: 906 nM (active)
- GI50 [5]: 865 nM (active)
- GI50 [6]: 1.12 µM (inactive)
- GI50 [7]: 1.2 µM (inactive)
- GI50 [8]: 1.69 µM (inactive)
- GI50 [9]: 719 nM (active)
